Test results as given in patent US8232289B2, “Spiropiperidine compounds as ORL-1 receptor antagonists” (Eli Lilly and Company, priority 2009, dated 2012).
Marks after values point to notes of the source that are not given here.

How the values were obtained:
5-HT6 = 5-HT6 (Homo sapiens, UniProt P50406); assay: Radioligand binding selectivity, 5-HT6
Description: Similarly, Ki for the mu, kappa and delta opioids, serotonin, dopamine, adrenergic, mucarinic, and histamine receptors, as well as binding to the norepinephrine transporter, sodium channel, chloride channel, and calcium channel may be determined using membranes expressing the desired receptor/transporter/channels and appropriate corresponding radioligand competitor molecules.

[1] = system: 129S6 wild type and nociceptin/ORL1 receptor knockout mice; assay: mFST in wild type and ORL-1 knockout mice; type: in vivo
Description: mFST is an established in vivo assay for antidepressant activity (Li et al. J Pharmacol Exp Ther. 319(1):254-9, 2006.). […] The mFST was used to evaluate potential antidepressant-like activity of novel nociceptin/ORL1 antagonists according to previously published methods (Li et al. J Pharmacol Exp Ther. 319(1):254-9, 2006.). Briefly, male NIH-Swiss mice (Harlan Sprague-Dawley, Indianapolis, Ind.) weighing between 25-30 g are used. Group housed animals are removed from the vivarium to the testing area in their own cages and allowed to adapt to the new environment for at least 1 hour before testing. Alternatively, male 129S6 wild type and nociceptin/ORL1 receptor knockout mice were used to confirm dependence of the response to compound was nociceptin/ORL1 receptor dependent. All compounds are prepared in 20% Captisol, 25 mM phosphate buffer, pH 2.0 on the day of use. Mice are placed in a cylinder (diameter: 10 cm; height: 25 cm) filled with 6 cm of water (22-25° C.) for 6 min. The duration of immobility during the last 4 min. of the 6 min. period of the test was scored. A mouse is recorded as immobile when floating motionless or making only those movements necessary to keep its head above water.
Yet further, these effects of reduced immobilization times are not observed when ORL-1 knockout mice, a strain of mice engineered to lack the ORL-1 receptor, are used, showing that the effect is indeed mediated by the ORL-1 receptor.

Male Sprague-Dawley rats = assay: Rat dural plasma protein extravasation (PPE) model, oral dosing; type: in vivo
Experimental: All test compounds are prepared in a vehicle solution containing 20% Captisol in 25 mM phosphate buffer (pH 2.0). The positive control compound, sumatriptan, is dissolved in saline. Male Sprague-Dawley rats from Harlan Laboratories (250 to 350 g), that have been fasted overnight, are dosed with test compound, sumatriptan or vehicle by oral gavage (2 mL/kg). Fifty min. post-dose the rats are anesthetized with Nembutal (60 mg/kg, ip) and placed in a stereotaxic frame with the incisor bar set at −2.5 mm. Following a mid-line sagittal scalp incision, 2 pairs of bilateral holes were drilled through the skull (3.2 mm posteriorly, 1.8 and 3.8 mm laterally, all coordinates referenced to bregma). Pairs of stainless steel stimulating electrodes (Rhodes Medical Systems Inc), insulated except at the tips, are lowered through the holes in both hemispheres to a depth of 9.2 mm below the dura.
A solution of fluoroscein isothiocyanate (FITC) dye-labeled bovine serum albumin (BSA) (FITC-BSA) (20 mg/kg, iv), is injected into the femoral vein 2 minutes prior to electrical stimulation of the trigeminal ganglion to function as the marker for protein extravasation. Sixty minutes following dosing with test compound or vehicle, the left trigeminal ganglion is electrically stimulated for 5 minutes at a current intensity of 1.0 mA (5 Hz, 5 minutes duration).
Five minutes following stimulation, the rats are killed by exsanguination with 40 mL of saline which also rinses residual FITC/BSA out of the blood vessels. The top of the skull is removed to collect the dural membranes. The membrane samples are removed from both hemispheres, rinsed with water, and spread flat on microscope slides. The slides are dried for 15 minutes on a slide warmer and cover-slipped with a 70% glycerol/water solution.
A fluorescence microscope equipped with a grating monochromator and a spectrophotometer is used to quantify the amount of FITC-BSA dye in each dural sample. The microscope is equipped with a motorized stage interfaced with a personal computer. This facilitates the computer-controlled movement of the stage, with fluorescence measurements at 25 points (500 μm steps) on each dural sample. The extravasation induced by electrical stimulation of the trigeminal ganglion is an ipsilateral effect (that is occurs only on the side of the dura in which the trigeminal ganglion is stimulated). This allows the other (unstimulated) half of the dura to be used as a control. The extravasation ratio (that is the ratio of the amount of extravasation in the dura from the stimulated side compared to the unstimulated side) is calculated. Animals dosed with vehicle alone or an ineffective dose of the test compound have an extravasation ratio of approximately 2, while totally effective treatments result in a ratio of approximately 1.
Results are expressed as mean values with standard errors of the mean (±SEM). All statistical evaluations are conducting utilizing ANOVA followed by comparison to the control group by Dunnett's Method. Statistical significance is assumed when p<0.05. Statistical analyses are performed using JMP statistical analysis software (SAS Research Institute, version 6.0.2).

Sequence of 5-HT6 (P50406 whole entry, species assumed): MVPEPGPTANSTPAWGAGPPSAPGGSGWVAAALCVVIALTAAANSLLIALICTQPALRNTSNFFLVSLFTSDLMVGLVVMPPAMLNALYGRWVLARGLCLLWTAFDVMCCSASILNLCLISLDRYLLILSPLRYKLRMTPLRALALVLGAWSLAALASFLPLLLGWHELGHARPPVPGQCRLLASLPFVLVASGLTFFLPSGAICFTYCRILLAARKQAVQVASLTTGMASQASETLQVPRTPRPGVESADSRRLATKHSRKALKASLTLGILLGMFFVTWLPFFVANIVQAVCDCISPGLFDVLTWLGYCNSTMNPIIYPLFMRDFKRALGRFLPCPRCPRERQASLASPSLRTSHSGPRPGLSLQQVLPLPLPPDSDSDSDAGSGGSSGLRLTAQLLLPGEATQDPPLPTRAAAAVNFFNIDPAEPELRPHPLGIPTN

| SMILES | Ki (5-HT6) [µM] | effect on immobilization time ([1]; ORL-1 knockout mice) | effect on immobilization time ([1]; wild type mice) | Extravasation Ratio (mean) (Male Sprague-Dawley rats; 0.1 mg/kg po) | Extravasation Ratio (mean) (Male Sprague-Dawley rats; 1.0 mg/kg po) | Extravasation Ratio (mean) (Male Sprague-Dawley rats; 10.0 mg/kg po) | Extravasation Ratio (mean) (Male Sprague-Dawley rats; 30.0 mg/kg po) | blockade of extravasation (Male Sprague-Dawley rats; oral dosing) |
| --- | --- | --- | --- | --- | --- | --- | --- | --- |
| O=C(O)C(O)C(O)C(=O)O.OCc1nn(-c2ncccc2F)cc1CN1CCC2(CC1)OCC(F)(F)c1cc(Cl)sc12 [Example 53, [4-[(2-Chloro-4,4-difluoro-spiro[5H-thieno[2,3-c]pyran-7,4′-piperidine]-1′-yl)methyl]-1-(3-fluoro-2-pyridyl)pyrazol-3-yl]methanol (L)-Tartrate] | > 5.83 |  |  |  |  |  |  |  |
| Cc1nn(-c2ncccc2CO)cc1CN1CCC2(CC1)OCC(F)(F)c1cc(Cl)sc12 [Example 62, [2-[4-[(2-Chloro-4,4-difluoro-spiro[5H-thieno[2,3-c]pyran-7,4′-piperidine]-1′-yl)methyl]-3-methyl-pyrazol-1-yl]-3-pyridyl]methanol] |  | no effect | significantly reduce the immobilization time | 1.83 | 1.44* | 1.20* | 1.14* | effectively block extravasation in a dose dependent manner |
